Assay results published in patent US8507489B2, “Bicyclic triazoles as protein kinase modulators” (SGX Pharmaceuticals, Inc., priority 2006, dated 2013).

Tests used:
IGF1R = IGF1R (Homo sapiens, UniProt P08069); assay: SelectScreen Kinase Profiling IGF1R; assay type: biochemical
Source text: (§1) SelectScreen™ is a trademark screening assay protocol for kinases developed by Invitrogen Corporation, Madison, Wis. Details on assay conditions can be found on the company's website.

PLK1 = PLK1 (Homo sapiens, UniProt P53350); assay: SelectScreen Kinase Profiling PLK1; assay type: biochemical
Source text: as §1

ALK = ALK (Homo sapiens, UniProt Q9UM73); assay: SelectScreen Kinase Profiling ALK; assay type: biochemical
Source text: as §1

FES (FPS) = FES (FPS) (Homo sapiens, UniProt P07332); assay: SelectScreen Kinase Profiling FES; assay type: biochemical
Source text: as §1

GTL16 cells = assay: 96-well XTT cell survival assay (GTL16 cells); assay type: cell-based; settings: Homo sapiens, GTL 16, 72 hours
Description: GTL16 cells were maintained in DMEM Medium supplemented with 10% fetal bovine serum (FBS) 2 mM L-Glutamine and 100 units penicillin/100 μg streptomycin, at 37° C. in 5% CO2.
Compounds were tested in the following assays in duplicate.
96-well XTT assay (GTL16 cells): One day prior to assay the growth media was aspirated off and assay media was added to cells. On the day of the assay, the cells were grown in assay media containing various concentrations of compounds (duplicates) on a 96-well flat bottom plate for 72 hours at 37° C. in 5% CO2. The starting cell number was 5000 cells per well and volume was 120 μl. At the end of the 72-hour incubation, 40 μl of XTT labeling mixture (50:1 solution of sodium 3′-[1-(phenylaminocarbonyl)-3,4-tetrazolium]-bis (4-methoxy-6-nitro) benzene sulfonic acid hydrate and Electron-coupling reagent: PMS (N-methyl dibenzopyrazine methyl sulfate) were added to each well of the plate. After an additional 5 hours of incubation at 37° C., the absorbance reading at 450 nm with a background correction of 650 nm was measured with a spectrophotometer.

EGFR (ErbB1) = EGFR (ErbB1) (Homo sapiens, UniProt P00533); assay: SelectScreen Kinase Profiling EGFR; assay type: biochemical
Source text: as §1

ABL1 Y253F = ABL1 Y253F (Homo sapiens, UniProt P00519, Y253F); assay: SelectScreen Kinase Profiling ABL1 Y253F; assay type: biochemical
Source text: as §1

KIT T670I = KIT T670I (Homo sapiens, UniProt P10721, T670I); assay: SelectScreen Kinase Profiling KIT T670I; assay type: biochemical
Source text: as §1

MST1R (RON) = MST1R (RON) (Homo sapiens, UniProt Q04912); assay: SelectScreen Kinase Profiling MST1R; assay type: biochemical
Source text: as §1

c-MET = c-MET (Homo sapiens, UniProt P08581); assay: MET luminescence-based enzyme assay (Kinase-Glo); assay type: biochemical
Description: The subscript designates positive or negative controls. The Z′ score for a robust screening assay should be ≧0.50. The typical threshold=μ+−3*σ+. Any value that falls below the threshold was designated a “hit”.
MET Luminescence-Based Enzyme Assay
MET kinase (see below), Kinase-Glo™ (Promega Cat#V6712).
Negative controls contained 10 μM staurosporine.

MET M1250T = MET M1250T (Homo sapiens, UniProt P08581, M1250T); assay: SelectScreen Kinase Profiling MET M1250T; assay type: biochemical
Source text: as §1

FRAP1 (mTOR) = FRAP1 (mTOR) (Homo sapiens, UniProt P42345); assay: SelectScreen Kinase Profiling FRAP1; assay type: biochemical
Source text: as §1

MET (cMet) = MET (cMet) (Homo sapiens, UniProt P08581); assay: SelectScreen Kinase Profiling MET; assay type: biochemical
Source text: as §1

KDR (VEGFR2) = KDR (VEGFR2) (Homo sapiens, UniProt P35968); assay: SelectScreen Kinase Profiling KDR; assay type: biochemical
Source text: as §1

PLK1, sequence (P53350 whole entry): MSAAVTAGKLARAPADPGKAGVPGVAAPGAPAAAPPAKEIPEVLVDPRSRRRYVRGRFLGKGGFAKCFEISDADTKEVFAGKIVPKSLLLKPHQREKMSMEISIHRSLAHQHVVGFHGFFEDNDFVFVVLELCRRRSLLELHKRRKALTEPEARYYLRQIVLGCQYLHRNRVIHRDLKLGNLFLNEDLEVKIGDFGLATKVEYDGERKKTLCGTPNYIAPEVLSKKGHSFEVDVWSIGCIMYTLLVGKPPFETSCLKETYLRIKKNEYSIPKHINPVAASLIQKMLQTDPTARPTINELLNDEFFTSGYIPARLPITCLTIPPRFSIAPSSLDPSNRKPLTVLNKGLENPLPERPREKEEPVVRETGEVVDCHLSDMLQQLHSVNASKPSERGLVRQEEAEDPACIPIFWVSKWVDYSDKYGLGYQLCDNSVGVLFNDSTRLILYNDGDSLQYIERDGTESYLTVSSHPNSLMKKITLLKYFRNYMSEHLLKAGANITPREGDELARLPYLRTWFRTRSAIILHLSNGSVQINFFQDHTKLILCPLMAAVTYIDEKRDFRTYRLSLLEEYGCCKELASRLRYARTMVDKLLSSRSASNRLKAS
ALK, sequence (Q9UM73 19-1620): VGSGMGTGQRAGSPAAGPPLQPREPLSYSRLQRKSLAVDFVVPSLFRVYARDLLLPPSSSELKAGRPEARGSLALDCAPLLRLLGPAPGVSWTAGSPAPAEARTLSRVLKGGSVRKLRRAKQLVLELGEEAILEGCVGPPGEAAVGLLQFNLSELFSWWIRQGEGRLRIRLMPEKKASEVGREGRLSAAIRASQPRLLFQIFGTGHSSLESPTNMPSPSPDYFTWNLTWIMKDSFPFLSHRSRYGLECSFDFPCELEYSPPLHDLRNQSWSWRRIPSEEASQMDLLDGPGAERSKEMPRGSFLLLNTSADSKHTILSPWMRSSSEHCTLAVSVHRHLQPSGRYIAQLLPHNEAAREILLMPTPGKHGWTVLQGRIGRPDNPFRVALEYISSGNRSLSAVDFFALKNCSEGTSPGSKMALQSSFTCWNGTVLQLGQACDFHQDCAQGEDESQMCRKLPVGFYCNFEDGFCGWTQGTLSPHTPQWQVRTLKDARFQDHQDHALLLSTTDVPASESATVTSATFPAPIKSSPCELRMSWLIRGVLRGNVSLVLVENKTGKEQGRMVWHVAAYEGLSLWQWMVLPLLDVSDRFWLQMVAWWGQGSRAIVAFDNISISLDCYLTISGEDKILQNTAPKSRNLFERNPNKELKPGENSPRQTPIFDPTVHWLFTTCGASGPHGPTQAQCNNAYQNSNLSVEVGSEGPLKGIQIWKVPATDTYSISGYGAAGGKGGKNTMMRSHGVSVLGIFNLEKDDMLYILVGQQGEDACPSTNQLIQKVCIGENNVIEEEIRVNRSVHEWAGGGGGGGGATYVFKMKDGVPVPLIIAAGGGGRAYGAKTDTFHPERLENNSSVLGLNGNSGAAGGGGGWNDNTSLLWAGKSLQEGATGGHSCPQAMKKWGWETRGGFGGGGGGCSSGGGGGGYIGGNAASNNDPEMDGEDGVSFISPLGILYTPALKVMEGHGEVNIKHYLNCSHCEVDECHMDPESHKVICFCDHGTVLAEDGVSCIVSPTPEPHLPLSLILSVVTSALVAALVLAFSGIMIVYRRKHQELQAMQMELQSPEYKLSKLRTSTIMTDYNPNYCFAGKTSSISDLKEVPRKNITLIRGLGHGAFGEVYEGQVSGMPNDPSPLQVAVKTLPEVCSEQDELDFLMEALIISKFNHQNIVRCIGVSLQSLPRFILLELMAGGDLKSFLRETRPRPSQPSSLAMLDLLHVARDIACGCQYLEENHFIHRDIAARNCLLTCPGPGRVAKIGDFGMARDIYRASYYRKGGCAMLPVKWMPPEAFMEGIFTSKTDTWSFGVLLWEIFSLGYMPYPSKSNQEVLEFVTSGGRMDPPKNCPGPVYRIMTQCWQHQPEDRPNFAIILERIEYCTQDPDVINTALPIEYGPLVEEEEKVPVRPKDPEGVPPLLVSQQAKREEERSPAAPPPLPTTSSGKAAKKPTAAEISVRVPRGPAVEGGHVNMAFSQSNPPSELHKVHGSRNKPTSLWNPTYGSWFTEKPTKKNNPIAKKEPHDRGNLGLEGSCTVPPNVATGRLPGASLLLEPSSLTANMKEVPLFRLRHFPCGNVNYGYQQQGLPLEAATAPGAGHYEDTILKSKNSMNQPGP
KIT T670I, sequence (P10721 26-976 T670I): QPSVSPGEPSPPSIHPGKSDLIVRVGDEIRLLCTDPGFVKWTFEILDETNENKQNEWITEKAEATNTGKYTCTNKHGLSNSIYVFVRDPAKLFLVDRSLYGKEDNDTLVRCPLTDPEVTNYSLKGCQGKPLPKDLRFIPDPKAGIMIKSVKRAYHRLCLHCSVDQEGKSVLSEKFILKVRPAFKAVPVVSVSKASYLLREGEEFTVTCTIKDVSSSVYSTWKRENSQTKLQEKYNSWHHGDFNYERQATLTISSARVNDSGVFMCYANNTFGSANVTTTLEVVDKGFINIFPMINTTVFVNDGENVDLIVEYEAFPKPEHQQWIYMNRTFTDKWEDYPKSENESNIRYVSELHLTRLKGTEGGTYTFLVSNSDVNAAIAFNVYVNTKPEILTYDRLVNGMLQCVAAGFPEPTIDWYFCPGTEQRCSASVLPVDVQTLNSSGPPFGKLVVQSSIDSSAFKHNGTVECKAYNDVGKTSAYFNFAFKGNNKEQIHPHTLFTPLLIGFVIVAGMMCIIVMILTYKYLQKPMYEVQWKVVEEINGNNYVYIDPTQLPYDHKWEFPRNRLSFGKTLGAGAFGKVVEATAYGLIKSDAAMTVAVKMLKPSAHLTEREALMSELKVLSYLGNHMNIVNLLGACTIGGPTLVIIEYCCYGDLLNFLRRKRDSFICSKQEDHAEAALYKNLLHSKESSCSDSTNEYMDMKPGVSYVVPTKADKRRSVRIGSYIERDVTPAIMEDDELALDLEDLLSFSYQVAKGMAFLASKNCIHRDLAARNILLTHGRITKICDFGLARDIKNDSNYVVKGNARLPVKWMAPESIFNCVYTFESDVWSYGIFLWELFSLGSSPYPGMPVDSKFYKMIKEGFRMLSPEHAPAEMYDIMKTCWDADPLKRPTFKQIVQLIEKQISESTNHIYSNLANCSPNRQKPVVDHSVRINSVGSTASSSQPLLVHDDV
EGFR (ErbB1), sequence (P00533 25-1210): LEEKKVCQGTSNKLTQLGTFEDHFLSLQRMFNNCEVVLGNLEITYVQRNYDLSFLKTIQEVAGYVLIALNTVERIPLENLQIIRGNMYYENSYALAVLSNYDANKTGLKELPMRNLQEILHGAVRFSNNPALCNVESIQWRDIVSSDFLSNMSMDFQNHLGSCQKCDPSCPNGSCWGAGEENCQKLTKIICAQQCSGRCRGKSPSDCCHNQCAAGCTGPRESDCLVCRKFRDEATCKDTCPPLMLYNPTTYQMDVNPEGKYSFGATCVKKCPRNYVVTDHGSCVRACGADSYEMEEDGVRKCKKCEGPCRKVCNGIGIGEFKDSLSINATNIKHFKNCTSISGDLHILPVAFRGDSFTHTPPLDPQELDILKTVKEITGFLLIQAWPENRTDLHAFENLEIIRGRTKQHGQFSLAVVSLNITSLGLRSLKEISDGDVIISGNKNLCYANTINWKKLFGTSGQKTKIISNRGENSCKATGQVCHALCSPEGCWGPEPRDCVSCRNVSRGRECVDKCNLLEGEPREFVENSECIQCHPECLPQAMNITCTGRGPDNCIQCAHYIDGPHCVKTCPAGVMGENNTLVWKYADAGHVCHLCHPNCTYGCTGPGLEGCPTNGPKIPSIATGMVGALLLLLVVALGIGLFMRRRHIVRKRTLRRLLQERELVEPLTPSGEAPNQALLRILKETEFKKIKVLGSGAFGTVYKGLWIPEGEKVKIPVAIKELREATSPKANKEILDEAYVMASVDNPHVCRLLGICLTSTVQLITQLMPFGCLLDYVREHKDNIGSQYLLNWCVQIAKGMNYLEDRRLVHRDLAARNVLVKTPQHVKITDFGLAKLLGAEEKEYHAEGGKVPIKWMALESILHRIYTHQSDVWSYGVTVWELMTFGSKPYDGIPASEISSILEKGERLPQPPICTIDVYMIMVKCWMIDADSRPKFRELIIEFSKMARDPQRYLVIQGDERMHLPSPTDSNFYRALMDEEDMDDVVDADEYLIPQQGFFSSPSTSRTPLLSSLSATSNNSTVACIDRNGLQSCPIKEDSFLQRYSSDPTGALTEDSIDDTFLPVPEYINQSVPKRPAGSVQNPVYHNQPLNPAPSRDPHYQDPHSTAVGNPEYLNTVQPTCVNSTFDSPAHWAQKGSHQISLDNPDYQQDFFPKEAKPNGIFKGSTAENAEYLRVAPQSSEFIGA
c-MET, sequence (P08581 1078-1345 limits assumed): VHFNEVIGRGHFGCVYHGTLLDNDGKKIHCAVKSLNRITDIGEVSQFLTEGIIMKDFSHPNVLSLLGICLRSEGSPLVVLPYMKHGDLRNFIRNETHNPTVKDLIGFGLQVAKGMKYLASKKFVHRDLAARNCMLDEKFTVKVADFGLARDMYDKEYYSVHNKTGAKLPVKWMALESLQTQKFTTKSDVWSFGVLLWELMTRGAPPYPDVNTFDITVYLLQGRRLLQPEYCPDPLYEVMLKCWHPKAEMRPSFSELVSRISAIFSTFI

Row | inhibition at 1 µM (IGF1R) [%] | inhibition at 1 µM (PLK1) [%] | inhibition at 1 µM (ALK) [%] | inhibition at 1 µM (FES (FPS)) [%] | inhibition at 1 µM (EGFR (ErbB1)) [%] | inhibition at 1 µM (ABL1 Y253F) [%] | inhibition at 1 µM (KIT T670I) [%] | inhibition at 1 µM (MST1R (RON)) [%] | IC50 (c-MET) [nM] | inhibition at 1 µM (MET M1250T) [%] | inhibition at 1 µM (FRAP1 (mTOR)) [%] | inhibition at 1 µM (MET (cMet)) [%] | inhibition at 1 µM (KDR (VEGFR2)) [%] | SMILES | IC50 (GTL16 cells) [nM]
1 | -3 | 0 | -10 | 5 | -2 | 20 | -12 | 9 |  |  |  |  |  | Cn1cc(-c2ccc3nnc(Sc4ccc5ncccc5c4)n3n2)cn1 [Compound 4, 6-[6-(1-Methyl-1H-pyrazol-4-yl)-[1,2,4]triazolo[4,3-b]pyridazin-3-ylsulfanyl]-quinoline] | ≤ 100
2 | 6 | 0 | 23 | 1 | 0 | 30 | 4 | 53 | < 100 | 89 | 0 | 98 | 16 | Cc1ccc2nnc(Sc3ccc4ncc(-c5cnn(C)c5)cc4c3)n2n1 [Compound 41, 3-(1-Methyl-1H-pyrazol-4-yl)-6-(6-methyl-[1,2,4]triazolo[4,3-b]pyridazin-3-ylsulfanyl)-quinoline] | ≤ 100
